Measurements published in patent US10717716B2, “1,3,4-oxadiazole derivative compounds as histone deacetylase 6 inhibitor, and the pharmaceutical composition comprising the same” (Chong Kun Dang Pharmaceutical Corp., priority 2015, dated 2020).

Biological target: T1, human recombinant HDAC6 (Homo sapiens, UniProt Q9UBN7)
T1 construct: purchased Calbiochem 382180
T1 sequence (Q9UBN7 1-1215): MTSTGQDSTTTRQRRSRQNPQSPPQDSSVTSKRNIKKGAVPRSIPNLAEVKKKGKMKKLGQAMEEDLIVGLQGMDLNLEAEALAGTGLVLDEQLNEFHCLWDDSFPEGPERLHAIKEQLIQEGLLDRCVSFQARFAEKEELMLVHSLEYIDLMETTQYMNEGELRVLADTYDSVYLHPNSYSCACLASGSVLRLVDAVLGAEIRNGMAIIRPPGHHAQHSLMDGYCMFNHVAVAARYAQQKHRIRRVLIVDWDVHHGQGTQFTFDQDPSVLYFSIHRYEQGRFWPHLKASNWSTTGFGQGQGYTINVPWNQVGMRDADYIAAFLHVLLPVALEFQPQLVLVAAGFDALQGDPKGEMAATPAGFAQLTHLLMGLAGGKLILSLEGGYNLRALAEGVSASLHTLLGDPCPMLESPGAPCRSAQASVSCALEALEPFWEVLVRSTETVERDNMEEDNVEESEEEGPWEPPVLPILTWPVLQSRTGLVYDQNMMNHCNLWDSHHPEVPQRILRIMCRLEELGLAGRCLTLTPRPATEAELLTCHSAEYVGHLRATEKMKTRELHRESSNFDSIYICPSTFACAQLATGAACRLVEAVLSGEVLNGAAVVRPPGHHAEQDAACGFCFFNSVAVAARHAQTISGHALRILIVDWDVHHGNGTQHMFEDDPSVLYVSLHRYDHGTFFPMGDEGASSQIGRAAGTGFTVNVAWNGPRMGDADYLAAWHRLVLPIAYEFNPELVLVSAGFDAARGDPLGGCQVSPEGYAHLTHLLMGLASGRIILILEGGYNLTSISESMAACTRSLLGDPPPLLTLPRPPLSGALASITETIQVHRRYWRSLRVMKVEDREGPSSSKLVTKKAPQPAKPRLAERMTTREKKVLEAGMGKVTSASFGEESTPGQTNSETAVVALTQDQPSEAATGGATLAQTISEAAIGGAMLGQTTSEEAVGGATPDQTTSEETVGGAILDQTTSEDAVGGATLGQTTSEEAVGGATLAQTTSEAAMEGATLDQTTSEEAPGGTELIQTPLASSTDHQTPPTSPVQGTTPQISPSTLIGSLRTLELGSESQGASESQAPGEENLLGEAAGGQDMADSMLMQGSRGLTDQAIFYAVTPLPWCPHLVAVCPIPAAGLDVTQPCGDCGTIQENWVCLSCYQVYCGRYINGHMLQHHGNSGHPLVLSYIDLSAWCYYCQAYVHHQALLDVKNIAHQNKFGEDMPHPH
Test: HDAC6 enzyme activity inhibition assay (HDAC Fluorimetric Drug Discovery Kit)
Type: biochemical
Conditions: for HDAC6 selectivity (fold): HDAC6 over HDAC1; for IC50: human recombinant HDAC6, same protocol as HDAC1, read-out: HDAC6
Procedure, shortened: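 Fluorimetric deacetylase assay: 5-fold serial compound dilutions, 0.3 μg recombinant human enzyme (HDAC1 or HDAC6, same protocol), 10 μM Fluor de Lys-SIRT1 substrate, 60 min at 30 °C. Signal developed 30 min, measured at 360/460 nm; IC50 values derived.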

HDAC6 selectivity (fold)	IC50	Structure (SMILES)
217 fold	46 nM	COc1ccccc1N(Cc1ccc(-c2nnc(C(F)F)o2)cc1F)C(=O)N1CCN(C)CC1 [Compound 21472, N-(4-(5-(difluoromethyl)-1,3,4-oxadiazol-2-yl)-2-fluorobenzyl)-N-(2-methoxyphenyl)-4-methylpiperazine-1-carboxamide]
313 fold	32 nM	COc1cccc(N(Cc2ccc(-c3nnc(C(F)F)o3)cc2F)C(=O)N2CCN(C)CC2)c1 [Compound 21473, N-(4-(5-(difluoromethyl)-1,3,4-oxadiazol-2-yl)-2-fluorobenzyl)-N-(3-methoxyphenyl)-4-methylpiperazine-1-carboxamide]
77 fold	130 nM	COc1ccccc1N(Cc1ccc(-c2nnc(C(F)F)o2)cc1)C(=O)N1CCS(=O)(=O)CC1 [Compound 21474, N-(4-(5-(difluoromethyl)-1,3,4-oxadiazol-2-yl)benzyl)-N-(2-methoxyphenyl)thiomorpholine-4-carboxamide 1,1-dioxide]
145 fold	69 nM	COc1cccc(N(Cc2ccc(-c3nnc(C(F)F)o3)cc2)C(=O)N2CCS(=O)(=O)CC2)c1 [Compound 21475, N-(4-(5-(difluoromethyl)-1,3,4-oxadiazol-2-yl)benzyl)-N-(3-methoxyphenyl)thiomorpholine-4-carboxamide 1,1-dioxide]
196 fold	51 nM	Cc1cccc(N(Cc2ccc(-c3nnc(C(F)F)o3)cc2)C(=O)N2CCS(=O)(=O)CC2)c1 [Compound 21476, N-(4-(5-(difluoromethyl)-1,3,4-oxadiazol-2-yl)benzyl)-N-(m-tolyl)thiomorpholine-4-carboxamide 1,1-dioxide]
137 fold	73 nM	COc1ccc(N(Cc2ccc(-c3nnc(C(F)(F)F)o3)cc2F)C(=O)N2CCS(=O)(=O)CC2)cc1 [Compound 21477, N-(2-fluoro-4-(5-(trifluoromethyl)-1,3,4-oxadiazol-2-yl)benzyl)-N-(4-methoxyphenyl)thiomorpholine-4-carboxamide 1,1-dioxide]
270 fold	37 nM	COc1ccc(N(Cc2ccc(-c3nnc(C(F)F)o3)cc2F)C(=O)N2CCS(=O)(=O)CC2)cc1 [Compound 21478, N-(4-(5-(difluoromethyl)-1,3,4-oxadiazol-2-yl)-2-fluorobenzyl)-N-(4-methoxyphenyl)thiomorpholine-4-carboxamide 1,1-dioxide]
167 fold	60 nM	COc1ccccc1N(Cc1ccc(-c2nnc(C(F)(F)F)o2)cc1F)C(=O)N1CCS(=O)(=O)CC1 [Compound 21479, N-(2-fluoro-4-(5-(trifluoromethyl)-1,3,4-oxadiazol-2-yl)benzyl)-N-(2-methoxyphenyl)thiomorpholine-4-carboxamide 1,1-dioxide]
204 fold	49 nM	COc1ccccc1N(Cc1ccc(-c2nnc(C(F)F)o2)cc1F)C(=O)N1CCS(=O)(=O)CC1 [Compound 21480, N-(4-(5-(difluoromethyl)-1,3,4-Oxadiazol-2-yl)-2-fluorobenzyl)-N-(2-methoxyphenyl)thiomorpholine-4-carboxamide 1,1-dioxide]

The next lines start with the molecule.

Structure (SMILES)	HDAC6 selectivity (fold)	IC50
CC(C)(C)c1ccc(N(Cc2ccc(-c3nnc(C(F)(F)F)o3)cc2)C(=O)N2CCS(=O)(=O)CC2)cc1 [Compound 21458, N-(4-(tert-butyl)phenyl)-N-(4-(5-(trifluoromethyl)-1,3,4-oxadiazol-2-yl)benzyl)thiomorpholine-4-carboxamide 1,1-dioxide]	1 fold	–
CC(C)(C)c1ccc(N(Cc2ccc(-c3nnc(C(F)F)o3)cc2)C(=O)N2CCS(=O)(=O)CC2)cc1 [Compound 21459, N-(4-(tert-butyl)phenyl)-N-(4-(5-(difluoromethyl)-1,3,4-oxadiazol-2-yl)benzyl)thiomorpholine-4-carboxamide 1,1-dioxide]	1 fold	–
CC(C)(C)c1ccc(N(Cc2ccc(-c3nnc(C(F)(F)F)o3)cc2F)C(=O)N2CCS(=O)(=O)CC2)cc1 [Compound 21460, N-(4-(tert-butyl)phenyl)-N-(2-fluoro-4-(5-(trifluoromethyl)-1,3,4-oxadiazol-2-yl)benzyl)thiomorpholine-4-carboxamide 1,1-dioxide]	1 fold	–
CC(C)(C)c1ccc(N(Cc2ccc(-c3nnc(C(F)F)o3)cc2F)C(=O)N2CCS(=O)(=O)CC2)cc1 [Compound 21461, N-(4-(tert-butyl)phenyl)-N-(4-(5-(difluoromethyl)-1,3,4-oxadiazol-2-yl)-2-fluorobenzyl)thiomorpholine-4-carboxamide 1,1-dioxide]	14 fold	731 nM
O=C(N1CCOCC1)N(Cc1ccccc1)Cc1ccc(-c2nnc(C(F)(F)F)o2)cc1 [Compound 21462, N-benzyl-N-(4-(5-(trifluoromethyl)-1,3,4-oxadiazol-2-yl)benzyl)morpholine-4-carboxamide]	7 fold	1420 nM
O=C(N1CCOCC1)N(Cc1ccc(-c2nnc(C(F)(F)F)o2)cc1)Cc1cccnc1 [Compound 21463, N-(pyridin-3-ylmethyl)-N-(4-(5-(trifluoromethyl)-1,3,4-oxadiazol-2-yl)benzyl)morpholine-4-carboxamide]	2 fold	4530 nM
O=C(N1CCOCC1)N(Cc1ccncc1)Cc1ccc(-c2nnc(C(F)(F)F)o2)cc1 [Compound 21464, N-(pyridin-4-ylmethyl)-N-(4-(5-(trifluoromethyl)-1,3,4-oxadiazol-2-yl)benzyl)morpholine-4-carboxamide]	6 fold	1730 nM
CN1CCN(C(=O)N(Cc2ccc(-c3nnc(C(F)F)o3)cc2F)c2cccc(Br)c2)CC1 [Compound 21465, N-(3-bromophenyl)-N-(4-(5-(difluoromethyl)-1,3,4-oxadiazol-2-yl)-2-fluorobenzyl)-4-methylpiperazine-1-carboxamide]	333 fold	30 nM
CN1CCN(C(=O)N(Cc2ccc(-c3nnc(C(F)F)o3)cc2F)c2ccc(Br)cc2)CC1 [Compound 21466, N-(4-bromophenyl)-N-(4-(5-(difluoromethyl)-1,3,4-oxadiazol-2-yl)-2-fluorobenzyl)-4-methylpiperazine-1-carboxamide]	128 fold	78 nM
CN1CCN(C(=O)N(Cc2ccc(-c3nnc(C(F)F)o3)cc2F)c2cccc(Cl)c2)CC1 [Compound 21467, N-(3-chlorophenyl)-N-(4-(5-(difluoromethyl)-1,3,4-oxadiazol-2-yl)-2-fluorobenzyl)-4-methylpiperazine-1-carboxamide]	323 fold	31 nM
CN1CCN(C(=O)N(Cc2ccc(-c3nnc(C(F)F)o3)cc2F)c2ccc(Cl)cc2)CC1 [Compound 21468, N-(4-chlorophenyl)-N-(4-(5-(difluoromethyl)-1,3,4-oxadiazol-2-yl)-2-fluorobenzyl)-4-methylpiperazine-1-carboxamide]	159 fold	63 nM
Cc1ccccc1N(Cc1ccc(-c2nnc(C(F)F)o2)cc1F)C(=O)N1CCN(C)CC1 [Compound 21469, N-(4-(5-(difluoromethyl)-1,3,4-oxadiazol-2-yl)-2-fluorobenzyl)-4-methyl-N-(o-tolyl)piperazine-1-carboxamide]	244 fold	41 nM
Cc1cccc(N(Cc2ccc(-c3nnc(C(F)F)o3)cc2F)C(=O)N2CCN(C)CC2)c1 [Compound 21470, N-(4-(5-(difluoromethyl)-1,3,4-oxadiazol-2-yl)-2-fluorobenzyl)-4-methyl-N-(m-tolyl)piperazine-1-carboxamide]	313 fold	32 nM
Cc1ccc(N(Cc2ccc(-c3nnc(C(F)F)o3)cc2F)C(=O)N2CCN(C)CC2)cc1 [Compound 21471, N-(4-(5-(difluoromethyl)-1,3,4-oxadiazol-2-yl)-2-fluorobenzyl)-4-methyl-N-(p-tolyl)piperazine-1-carboxamide]	213 fold	47 nM
